The target of one test is T1, GPX4^U46C (Homo sapiens, UniProt P36969, U73C).
T1 construct: made in house; host or cells: E. coli BL21-Gold (DE3)
T1 sequence (P36969 1-170 isoform P36969-2 U46C): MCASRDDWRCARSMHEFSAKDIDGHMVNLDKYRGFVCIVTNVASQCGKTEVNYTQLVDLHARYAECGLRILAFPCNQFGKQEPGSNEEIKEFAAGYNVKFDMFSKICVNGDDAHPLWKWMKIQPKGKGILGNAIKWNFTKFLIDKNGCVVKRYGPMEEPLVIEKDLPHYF
As to the kind of experiment: Microscale thermophoresis (MST) binding. The note with it: for EC50: half maximal effective concentration, covalent mechanism. How it is done:
The bacterial expression vector pET-15b-His-tagged-c-GPX4^U46C was prepared as previously described (Yang et al. 2016). The C-terminal His-tagged GPX4U46C protein was expressed in E. coli and purified according to a protocol modified from Scheerer et al. 2007. First, pET-15b-His-tagged-c-GPX4^U46C was transformed into XL10-Gold (Agilent #200314) E. coli ultracompetent cells for plasmid DNA production and isolated using QIAprep Spin Miniprep Kit (Qiagen). For protein expression, pET-15b-His-tagged-c-GPX4^U46C was then transformed into BL21-Gold (DE3) E. coli competent cells (Agilent #230132) and plated on LB agar with 100 μg/mL ampicillin. A starter culture was inoculated in 7 mL of LB medium with 100 μg/mL ampicillin using a single colony and allowed to grow in a 37° C. shaker (225 rpm) for 16 hours. 3 mL of the starter culture was added to 1 L of LB medium with 100 μg/mL ampicillin, which was then incubated in a 37° C. shaker (225 rpm) to an OD600 of 0.9. At that point, the incubation temperature was reduced to 15° C. and the culture was allowed to equilibrate for 1 hour. Expression of the recombinant enzyme was induced by addition of isopropyl β-D-1-thiogalactopyranoside (IPTG, 1 mM final concentration) overnight for 12-15 hours shaking at 225 rpm and 15° C. The next morning, cells were harvested by centrifugation at 4000 rpm and 4° C. for 20 minutes. The cell pellet was then frozen at −80° C. for at least 1 hour or until lysis. To lyse the cells, the cell pellet was resuspended with 25 mL of chilled lysis buffer (100 mM Tris pH 8.0, 300 mM NaCl, 20 mM imidazole, 3 mM TCEP, and 2.5 mini tablets of complete Protease Inhibitor Cocktail (Roche-Sigma #11836170001)) then lysed using an Emulsiflex C3 high-pressure homogenizer. To remove cell debris, the lysate was subjected to centrifugation at 10000 rpm and 4° C. for 20 minutes. The supernatant was centrifuged once more at the same conditions, then the clarified lysate was applied onto a 5-mL HisTrap HP column (Cytiva #17-5248-01), washed with 90% Buffer A (100 mM Tris pH 8.0, 300 mM NaCl, 5% glycerol, 3 mM TCEP) 10% Buffer B (Buffer A with 500 mM imidazole), then eluted with a continuous gradient (10-100% Buffer B). The protein was concentrated using Amicon Ultra-15 centrifugal filter units with a 10 kDa molecule weight cutoff (EMD Millipore #UFC901024) then further purified by FPLC on a size exclusion HiLoad Superdex 200 column (Cytiva) in crystallization buffer (20 mM Tris pH 8.0, 300 mM NaCl, 3 mM TCEP). The fractions containing 90-95% pure GPX4 protein, as evaluated by SDS-PAGE, were pooled and concentrated using the same Amicon centrifugal filter units as above to 5 mg/mL. Concentration was determined by Nanodrop. Protein was aliquoted into Eppendorf tubes, flash frozen using liquid nitrogen, and stored at −80° C. until use.
MST experiments were conducted using a Monolith NT.115 (Nanotemper Technologies) according to manufacturer instructions. To label the protein, 90 μL of 200 nM GPX4^U46C was combined with 90 μL of 100 nM RED-tris-NTA dye diluted in PBS buffer with 0.05% Tween 20 (PBST buffer). The mixture was incubated for 30 minutes at room temperature, followed by centrifugation for 10 minutes at 4° C. and 15,000×g. To assess binding of the compounds, a 16-point 2-fold dilution series in PBST buffer was prepared and mixed in a 1:1 ratio with the labeled protein solution for a final volume of 20 μL. The reaction mixture was loaded into standard treated capillary tubes and analyzed with the Monolith NT.115 at 40% LED power and 40% MST power with a laser-on time of 5 seconds. The data were analyzed in MO.Affinity Analysis v2.3 software.
Background: In MST a laser heats a spot of the sample, and binding alters the fluorescence response.

The next test relates to HT-1080 cells. The experiment in a line: Cellular dose response assay, HT-1080 with and without Fer-1. It counts as cell-based, human. In outline:
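CellTiter-Glo luminescence viability readout after 48 h compound exposure at 37 °C. Plated 1500 cells/well overnight beforehand; 12-point 2-fold dilution series, triplicate wells, 0.4% DMSO throughout. […]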

The subject of another test is Huh7 cells. As to the kind of experiment: Cellular dose response assay, Huh7. It counts as cell-based, human. From the text: (§1) HT-1080 (human [Homo sapiens] […] fibrosarcoma), A-673 (human [Homo sapiens] […] Ewing's sarcoma), and SK-HEP-1 (human [Homo sapiens] […] hepatic adenocarcinoma), cells were obtained from ATCC. Huh7 (human [Homo sapiens] […] hepatocellular carcinoma), HLF (human [Homo sapiens] […] hepatocellular carcinoma), HepG2 (human [Homo sapiens] […] hepatocellular carcinoma), cells were obtained from the Cancer Cell Bank at Columbia University Irving Medical Center. HT-1080, A-673, Huh-7, and HLF cells were grown in Dulbecco's Modified Eagle Medium (DMEM) supplemented with 10% heat inactivated fetal bovine serum (HI-FBS), 1% non-essential amino acids, and 1% penicillin streptomycin. HepG2 and SK-HEP-1 cells were grown in Eagle's Minimum Essential Medium (EMEM) supplemented with 10% HI-FBS, and 1% penicillin-streptomycin. All cells were cultured at 37° C. and 5% CO2.
(§2) HT-1080, HepG2, Huh7, HLF, and SK-HEP-1 cells were seeded into opaque white 384-well plates at 1500 cells per well then incubated at 37° C. with 5% CO2 overnight. The next day, compounds of interest were dissolved in DMSO and 12-point 2-fold dilution series were prepared with and without Fer-1. Cells were treated in triplicate (final DMSO concentration of 0.4% in all wells, including DMSO-only control wells) and incubated for a further 48 hours at 37° C. and 5% CO2. Cell viability was evaluated using CellTiter-Glo (Promega G7573) and luminescence was recorded on a Victor 5 plate reader. Data were analyzed in GraphPad Prism 9 and error bars represent standard deviation values for three technical replicates in a representative experiment.

The next test concerns HLF cells. As to the kind of experiment: Cellular dose response assay, HLF. The format is cell-based, human.
Source text: as §1, §2

The mark [1] stands for this setting: compounds alone, Table 4, read-out: IC50 (uM) Huh7^a.
The mark [2] stands for this setting: with fer-1, Table 4, read-out: IC50 (uM) Huh7^b.
Where [3] appears, read: compounds alone, Table 4, read-out: IC50 (uM) HT1080^a.
Where [4] appears, read: with fer-1, Table 4, read-out: IC50 (uM) HT1080^b.
Where [5] appears, read: compounds alone, Table 4, read-out: IC50 (uM) HLF^a.
[6] abbreviates: with fer-1, Table 4, read-out: IC50 (uM) HLF^b.
[7] abbreviates: with Fer-1, Table 10, read-out: IC50 (μM) HT1080 + Fer-1.

Structures are written as SMILES. Where two headings read alike, the source gives them in different places.

`COc1cccc2[nH]c(C(=O)n3ccnc3)cc12` [LOC1886, reference compound]: the Kd (commonly the equilibrium constant for the complex coming apart) on GPX4^U46C (MST) was determined as 263 µM. Moreover, on GPX4^U46C, the half-maximal effective concentration (EC50) (as a rule, the concentration needed to bring the measured effect to its halfway point) is 263 µM. Moreover, the IC50 (in general, the concentration at which inhibition is half-maximal) came to 163 µM in the test on HT-1080 cells (Homo sapiens, HT-1080, compounds alone, read-out: IC50 (μM) HT1080^a); 109 µM with HT-1080 cells (Homo sapiens, HT-1080, compounds and fer-1 1.0 μM, read-out: IC50 (μM) HT1080^b). Moreover, the “ferroptosis induction / potency in HT-1080 cells, result in words” value with HT-1080 cells (RSL3 as control) is recorded as “no fer-1 rescue was observed”.

Regarding `CC(C)(COC(=O)CCl)NC(=O)c1cc2ccccc2[nH]1` [QW-147], the half-maximal inhibitory concentration (IC50) in the test with Huh7 cells (setting [1]) stood at 98.7 µM; with Huh7 cells (setting [2]) it was 113 µM; with HT-1080 cells (setting [3]), 34.8 µM; in the test with HT-1080 cells (setting [4]) it was 37.2 µM; in the test on HLF cells (setting [5]), 98.7 µM; in the test with HLF cells (setting [6]) it was 113 µM. The molecule further showed a 50% effective concentration (EC50) at GPX4^U46C of 2.4 µM.

For `CC(C)(COC(=O)CCl)NC(=O)c1cc2cc([N+](=O)[O-])ccc2[nH]1` [QW-148], the IC50 was 15.8 µM in the test with Huh7 cells (setting [1]); 55 µM with Huh7 cells (setting [2]); 37.7 µM with HT-1080 cells (setting [3]); 95.9 µM with HT-1080 cells (setting [4]); 16.6 µM with HLF cells (setting [5]); 28.7 µM in the test with HLF cells (setting [6]). The EC50 on GPX4^U46C came out at 39.7 µM.

Regarding `COc1ccc2cc(C(=O)NC(C)(C)COC(=O)CCl)[nH]c2c1` [QW-152], the IC50 in the test on Huh7 cells (setting [1]) was determined as 59.6 µM; in the test on Huh7 cells (setting [2]), 110 µM; with HT-1080 cells (setting [3]) it was 55.5 µM; in the test with HT-1080 cells (setting [4]) it was 167 µM; in the test with HLF cells (setting [5]), 30 µM; with HLF cells (setting [6]), 278 µM. On GPX4^U46C, this molecule gave an EC50 of 0.678 µM.

For the molecule `CC(C)(COC(=O)CCl)NC(=O)c1cc2ccc(Br)cc2[nH]1` [QW-156], the half-maximal inhibitory concentration (IC50) came to 17.8 µM in the test on Huh7 cells (setting [1]); 55.4 µM in the test on Huh7 cells (setting [2]); 22.9 µM in the test with HT-1080 cells (setting [3]); 33.1 µM with HT-1080 cells (setting [4]); 13.4 µM in the test with HLF cells (setting [5]); 34.3 µM in the test on HLF cells (setting [6]). Also, on GPX4^U46C, the response was half-maximal at 0.218 µM (EC50).

For `Cn1nc(C(=O)NC(C)(C)COC(=O)CCl)c2ccc(Br)cc21` [QW-314], the “times less potent than RSL3 in cells” value in the test on Huh7 cells is given as “approximately 10 times”. In addition, the GI50 (commonly the concentration that inhibits growth by half) with Huh7 cells (Homo sapiens, Huh-7) was around 1 µM; with HLF cells (Homo sapiens, HLF) it was around 1 µM. In addition, the IC50 turned out to be 1.8 µM with Huh7 cells (Homo sapiens, Huh-7, read-out: IC50 (uM) Huh7^a); 92.9 µM in the test on Huh7 cells (Homo sapiens, Huh-7, read-out: IC50 (uM) Huh7^b); 1.9 µM with HT-1080 cells (Homo sapiens, HT-1080, read-out: IC50 (uM) HT1080^a); 77.4 µM with HT-1080 cells (Homo sapiens, HT-1080, read-out: IC50 (uM) HT1080^b); 0.13 µM with HLF cells (Homo sapiens, HLF, read-out: IC50 (uM) HLF^a); 80 µM in the test on HLF cells (Homo sapiens, HLF, read-out: IC50 (uM) HLF^b). The same molecule had a Kd on GPX4^U46C (MST) of 5.8 µM.

For `COc1ccc(-c2ccc3c(C(=O)NC(C)(C)COC(=O)CCl)nn(C)c3c2)cc1Cl` [QW-446], at GPX4^U46C (MST), binding was put at a Kd of 0.485 µM. Moreover, at GPX4^U46C (MST, relative to RSL3), the “times more potent than RSL3 (binding affinity)” value was 15 times. The IC50 with HT-1080 cells (HT1080 + Fer-1, read-out: IC50 (uM) HT1080 + Fer-1) turned out to be 30.3 µM; with HT-1080 cells (read-out: IC50 HT1080) it was 0.44 µM. In the test on HT-1080 cells (HT-1080), this molecule gave a ferroptosis selectivity of 69. For the same molecule, the Selectivity in the test on HT-1080 cells (ferroptosis selectivity, HT1080 + Fer-1 vs HT1080) was determined as 69.

Molecule `CC(C)(COC(=O)CCl)NC(=O)c1nn(Cc2cc(Cl)cc(Cl)c2)c2cc(-c3ccc(N4CCOCC4)c(Cl)c3)ccc12` [QW-852] returned a Selectivity in the test with HT-1080 cells above 1000. The IC50 in the test with HT-1080 cells (read-out: IC50 against HT1080 cell lines) was 0.0395 µM; in the test with HT-1080 cells (setting [7]), above 40 µM.

Take `COC(=O)c1ccc([C@@H]2c3[nH]c4ccccc4c3C[C@@H](C(=O)OC)N2C(=O)CCl)cc1` [RSL3, reference compound]: the concentration for half-maximal inhibition (IC50) in the test with Huh7 cells (setting [1]) is 0.6 µM; in the test with Huh7 cells (compounds alone, Table 7, read-out: IC50 (uM) Huh7^a) it was 0.6 µM; in the test with Huh7 cells (setting [2]), 34.4 µM; with Huh7 cells (with fer-1, Table 7, read-out: IC50 (uM) Huh7^b) it was 34.4 µM; in the test on HT-1080 cells (setting [3]) it was 0.044 µM; in the test on HT-1080 cells (compounds alone, Table 7, read-out: IC50 (uM) HT1080^a), 0.044 µM. For the same molecule, the IC50 with HT-1080 cells (compounds alone, read-out: IC50 (μM) HT1080^a) was 0.044 µM; in the test on HT-1080 cells (compounds and fer-1 1.0 μM, read-out: IC50 (μM) HT1080^b) it was 4.6 µM; in the test on HT-1080 cells (setting [7]), 4.6 µM; in the test on HT-1080 cells (setting [4]) it was 4.6 µM; in the test with HT-1080 cells (with fer-1, Table 7, read-out: IC50 (uM) HT1080^b), 4.6 µM; with HT-1080 cells (without Fer-1, Table 10, read-out: IC50 HT1080), 0.0444 µM. For the same molecule, the IC50 was 0.25 µM in the test with HLF cells (setting [5]); 0.25 µM with HLF cells (compounds alone, Table 7, read-out: IC50 (uM) HLF^a); above 40 µM in the test on HLF cells (setting [6]); above 40 µM with HLF cells (with fer-1, Table 7, read-out: IC50 (uM) HLF^b). In the test with HT-1080 cells, this molecule yielded a Selectivity of 103.6.
